Assay results taken from ChEMBL document CHEMBL1128493, “Synthesis and sigma binding properties of 2'-substituted 5,9 alpha-dimethyl-6,7-benzomorphans” (J Med Chem, 1995).

How the values were obtained:
[1] = Binding affinity measured on Sigma receptor type 1 from guinea pig brain membranes using [3H]pentazocine as radioligand.
[2] = Binding affinity at Sigma receptor type 2 on rat liver membranes receptor by [3H]DTG displacement.

In the case of CC1C2Cc3ccc(O)cc3C1(C)CCN2Cc1ccccc1 (single isomer, unassigned; (+)), the Ki [1] is reported as 0.67 nM and the Ki [2] is reported as 1710 nM.
